Experimental data as given in patent US9132138B2, “Method for the treatment of multiple sclerosis” (CASI Pharmaceuticals, Inc., priority 2012, dated 2015).

Columns and labels:
[1] = tested on: NF-κB; assay: EMSA of T cell nuclear extracts; format: cell-based, C57/BL6 mice; details: 2ME2 50 μM, PMA/iono
Method: (§1) FIG. 4A, purified T cells pre-treated with 2ME2 (50 μM) were stimulated with PMA/iono for the indicated times. Whole cell lysates were subjected to immunoblotting to detect the indicated proteins. FIG. 4B, nuclear lysates were analyzed by EMSA to detect DNA binding to NF-κB or AP-1. FP, free probe. FIG. 4C, purified T cells or B cells were pre-treated with vehicle (−) or 50 μM 2ME2 (+) and were stimulated with PMA/iono for 30 or 60 minutes (left), or with anti-CD3/28 or anti-IgM/CD40 for 24 hours (right). Nuclear fractions of lymphocytes were analyzed by immunoblotting to detect nuclear translocation of NFATc1. Lamin A, nuclear protein loading control. NS; non-specific band. For FIGS. 4A-4C, data are representative of at least two independent experiments. FIG. 4D, stably transfected NFAT and NF-κB Jurkat luciferase reporter cell lines were preincubated with 2ME2 for 30 minutes, and stimulated via crosslinking of anti-CD3/28 antibodies with goat anti-mouse antibodies (GaM). 5 hours later, secreted luciferase activity indicates relative transcriptional activity. Data is reported as normalized luciferase activity and is representative of 3 independent experiments.
(§2) Nuclear extracts of T cells stimulated with PMA (10 ng/ml)+calcium ionophore A23187 (iono, Sigma) (50 ng/ml) for 30 or 60 minutes were prepared according to a standard protocol. […]

[2] = tested on: AP-1; assay: EMSA of T cell nuclear extracts; format: cell-based, C57/BL6 mice; details: 2ME2 50 μM, PMA/iono
Method: as §1, §2

[3] = tested on: T cells; assay: Immunoblotting of signaling proteins in whole cell lysates of stimulated T cells; format: cell-based, C57/BL6 mice
Method: as §1
Whole cell lysates of stimulated T cells were immunoblotted with Ab recognizing phospho-protein kinase B (AKT) (Ser473), phospho-JNK (Thr183/Tyr185, p46 and p54 Clone G9, antibody “2”), phospho-ERK (Thr202/Tyr204) or phospho-IκBα (Ser32) (NEB); phospho-JNK (Thr183/Tyr185, p54 pSAPK/JNK, clone G7, antibody “1”) or IκBα(C21) (Santa Cruz); β-tubulin (Millipore) or actin (Sigma). Infrared dye-labeled secondary Ab (anti-rabbit Alexa fluor 680, Invitrogen, and anti-mouse IR800, LICOR) were visualized with the Odyssey® scanner (LICOR).

[4] = tested on: human PBL; assay: Proliferation of human PBMC/PBL activated with anti-CD3/28 (3H-thymidine); format: cell-based; details: anti-CD3/28 antibodies, 24 or 48 hours
Method: (§3) FIGS. 2A-2E, show proliferation and activation of T cells are inhibited by 2ME2. FIG. 2A, CD4^+ T cells were pre-treated with the indicated concentrations of 2ME2 and stimulated with plate-bound anti-CD3/28 or PMA/iono. Proliferation was assayed 24 hours (left) or 48 hours (right) later by 3H-thymidine incorporation. FIG. 2B, CD4^+ and CD8^+ T cells were stimulated with anti-CD3/28 in the presence of increasing concentrations of 2ME2. CD25 expression was assessed at 6 hours or 24 hours post-stimulation by flow cytometry. FIG. 2C, Quantification of CD25 expression in purified CD4^+ T cells pre-treated with increasing concentrations of 2ME2, and stimulated with anti CD3/28 or PMA/iono for 6 or 24 hours. […] Viability was determined 24 hours or 48 hours post-stimulation by flow cytometry. […] Proliferation was determined 24 hours or 48 hours later by 3H-thymidine incorporation. […]
(§4) Purified CD4^+ T cells were stimulated with plate-bound anti-CD3 (clone 2C11, BD, 10 ng/ml) plus anti-CD28 (clone 37.51, BD, 100 ng/ml). […] CD25 and CD69 expression was determined by flow cytometry (FACSCanto II, BD) and analyzed using FloJo software (Treestar Inc). Proliferation was assessed by 3H-thymidine incorporation. Viability and upregulation of cell surface markers on activated T cells were assessed by flow cytometry using Annexin V and propridium iodide. […]

[5] = tested on: Th17 cells; assay: Intracellular cytokine staining of in vitro differentiated Th17 cells; format: cell-based, C57/BL6 mice
[6] = tested on: T cells; assay: T cell activation markers CD25 and CD69 by flow cytometry; format: cell-based, C57/BL6 mice; details: anti-CD3/28 or PMA/iono
Method: as §3, §4

[7] = tested on: purified CD4^+ T cells; assay: Proliferation of purified CD4+ T cells by 3H-thymidine incorporation; format: cell-based, C57/BL6 mice; details: 24 hours or 48 hours post-stimulation
Method: as §3, §4

[8] = tested on: human PBL; assay: CD25 expression and cytokine production by CD3/28-stimulated human PBL; format: cell-based
Method: Purified CD4^+ T cells were stimulated with plate-bound anti-CD3 (clone 2C11, BD, 10 ng/ml) plus anti-CD28 (clone 37.51, BD, 100 ng/ml). Purified B220+ B cells were stimulated with anti-IgM (Jackson, 5 μg/ml), anti-CD40 (clone 3/20, BD, 5 μg/ml) or LPS (Sigma, 20 μg/ml) for the times indicated in FIG. 3. CD25 and CD69 expression was determined by flow cytometry (FACSCanto II, BD) and analyzed using FloJo software (Treestar Inc). Proliferation was assessed by 3H-thymidine incorporation. Viability and upregulation of cell surface markers on activated T cells were assessed by flow cytometry using Annexin V and propridium iodide. Human Peripheral blood mononuclear cells (PBMC) were isolated using Mono-Poly Resolving Medium (MP Biomedical) according to the manufacturer's protocols and activated with anti-CD3 (clone UCHT1) and anti-CD28 (clone CD28.2).

[9] = T cells activated with anti-CD3/28

COc1cc2c(cc1O)CC[C@@H]1[C@@H]2CC[C@]2(C)[C@@H](O)CC[C@@H]12 [2ME2, 2-Methoxyestradiol]
binding of NF-κB to DNA [1]: normal
AP-1 binding to DNA [2]: modest increase
AKT phosphorylation ([3]; 2ME2 50 μM, PMA/iono): did not inhibit
ERK phosphorylation ([3]; 2ME2 50 μM, PMA/iono): did not inhibit
IκBα phosphorylation and degradation ([3]; 2ME2 50 μM, PMA/iono): normal
phosphorylation of JNK 1 and 2 ([3]; 2ME2 50 μM, present even in the absence of stimulation): modest hyper-phosphorylation
ERK phosphorylation [3, 9]: did not inhibit
JNK phosphorylation [3, 9]: did not inhibit
NF-κB p65 phosphorylation [3, 9]: did not inhibit
proliferation of human PBL [4]: inhibited in a dose-dependent manner
Th17 cells positive for IL-17 ([5]; 50 μM 2ME2, PMA/iono 6 hours, vehicle 23.2%): 7.3%
production of IFNγ in Th17 cells (positive cells) ([5]; PMA/iono 6 hours, vehicle 9.1%): 7.3%
up-regulation of CD25 [6]: blocked up-regulation
up-regulation of CD69 [6]: blocked up-regulation
anti-CD3/28 or PMA+iono-dependent proliferation [7]: dose-dependent inhibition
IFNγ production ([8]; CD3/28-stimulated human PBL): inhibited
IL-2 production ([8]; CD3/28-stimulated human PBL): inhibited
IL-17A production ([8]; CD3/28-stimulated human PBL): inhibited
anti-CD3/28-induced expression of CD25 on CD4+ and CD8+ T cells ([8]; human PBL): inhibited
